The values below come from patent US10064845B2, “Compositions and methods of treating muscular dystrophy with thromboxane-A2 receptor antagonists” (Cumberland Pharmaceuticals, Inc., priority 2016, dated 2018).

Experiment [1] deals with pressure-overload model of pulmonary arterial hypertension. As to conditions: cited from earlier work.
The test system of experiment [2] is dSG KO mice. Description: wire hang in dSG mice. Format: in vivo, mouse. An excerpt: (§1) Example 4 utilized West/Carrier Muscular Dystrophy Animal Models (Delta-sarcoglycan knock-out mice (sgcd−/−)). Mice devoid of DSG develop cardiomyopathy and MD with signs of progressive disease such as necrosis, muscular regeneration, inflammation and fibrosis within the first 3 months of life. Mice that are homozygous for the targeted mutation are viable, fertile and normal in size. No gene product (protein) is immunodetected in skeletal muscle microsomal preparations. At 8 weeks of age there is an onset of sudden mortality, with a 50% survival rate at 28 weeks. Elevated creatine kinase serum levels are indicative of striated muscle degeneration. […] At 12 weeks of age, cardiac muscle tissue also begins to show degeneration, inflammatory infiltration and perivascular fibrosis. Myofiber membranes have permeability defects as assessed by Evans blue dye uptake into myofiber cytoplasm. […] A major function of dystrophin is to strengthen the sarcolemma by cross-linking the ECM with the cytoskeleton. […] They work to connect sarcolemma to cytoplasmic actin cytoskeleton. Dysfunction produces membrane instability, elevated [Ca2+]I and disrupted NO signaling. γ- and δ-SG form a core necessary for delivery/retention of other SG to the membrane.
Veh and ife-treated groups were NS tested against each other. N in parentheses. “ife”=ifetroban.
FIG. 8 depicts wire hang time for mice tested.

The test system of experiment [3] is dSG KO mice. Description: intestinal histology (H&E) in dSG KO mice. Format: in vivo, mouse. The settings on record: dSG KO mice vs vehicle-treated dSG KO mice; FIG. 13.
Source text: as §1, with “membrane. […]” for “membrane.”

Experiment [4] deals with utrophin/dystrophin double knockout (DKO) mice. Description: wire hang in DKO males. Type of experiment: in vivo, mouse. The settings on record: DKO males at 10 weeks; vs vehicle; FIG. 15. From the text:
While the DSG KO (sgcd−/−) mice lack functional delta-sarcoglycan, the MD phenotype is milder than the human disease. Since utrophin, a dystrophin-related protein, is able to compensate for the loss of dystrophin, loss of utrophin and dystrophin (DKO) results in a more severe phenotype. […] The mice are difficult to generate and care for, and often die prematurely. Ifetroban treatment was started at 3 weeks upon weaning.
FIG. 1 are photos of a vehicle-treated compared with an ifetroban-treated DKO mouse. FIG. 1A is a photograph of a vehicle-treated DKO Mouse at 10 weeks. FIG. 1B is a photograph of an ifetroban-treated DKO mouse at 10 weeks. The ability to wrap the tail around the wire is dependent on muscle function. A reason the DKO mice are really hard to evaluate in the wire hang is that they have such severe scoliosis that their hind paws are very close to their front paws, so raising their hind paws to get a 4-limbed grip is not difficult despite their affliction.
FIG. 15 are graphs showing wire hang in DKO males at 10 weeks (ifetroban-treated (“ife”) versus vehicle).

For experiment [5], the system named is δ-sarcoglycan knockout (dSG KO) mouse model of limb-girdle muscular dystrophy. Put plainly: cardiac histology (Masson's trichrome) in dSG KO mice. Format: in vivo.
Source text: (§2) Applicants explored the possibility that TPr activity may contribute to pathology in muscular dystrophy. In preliminary studies, the effects of blocking TPr activity in a δ-sarcoglycan knockout (dSG KO) mouse model of limb-girdle muscular dystrophy (LGMD). […] The inhibition of LV epicardial fibrosis may have particular applicability to DMD patients, where cardiac fibrosis typically begins in the sub-epicardium of the left ventricular (LV) free wall and progresses to include the remaining LV free wall and septum. […] Therefore, it is believed that TPr activity contributes to pathology in muscular dystrophy.
as §1
FIGS. 9A (dSGKO-vehicle) and 9B (DsGKO-ifetroban) show cardiac histology in dSG KO males. Less fibrosis seen in ifetroban treated RV. Shown is Masson's trichrome at 4× for gross histology. […]

Experiment [6] has the same test system. Put plainly: plasma cardiac troponin I in dSG KO mice. Format: in vivo. As to conditions: given in drinking water.
Source text: as §2
Example 4 utilized West/Carrier Muscular Dystrophy Animal Models (Delta-sarcoglycan knock-out mice (sgcd−/−)). Mice devoid of DSG develop cardiomyopathy and MD with signs of progressive disease such as necrosis, muscular regeneration, inflammation and fibrosis within the first 3 months of life. Mice that are homozygous for the targeted mutation are viable, fertile and normal in size. No gene product (protein) is immunodetected in skeletal muscle microsomal preparations. […] Myofiber membranes have permeability defects as assessed by Evans blue dye uptake into myofiber cytoplasm. […]
The term “cTNI” means plasma cardiac troponin I. The term “KO” means knockout. […] Plasma cardiac troponin I (cTNI) is highly specific and sensitive for myocardial tissue and can be measured rapidly. […]

Experiment [7] deals with utrophin/dystrophin double knockout (DKO) mice, a model of severe DMD. Put plainly: survival of utrophin/dystrophin DKO mice. Type of experiment: in vivo, mouse.
Source text: as §2
dSG KO mice, chosen for their cardiac phenotype, are a model of LGMD, but DMD which occurs in approximately 1:3500 male births (1), is far more common a disease than LGMD. The mdx mouse model of DMD poorly replicates the shortened life expectancy, cardiac fibrosis, and cardiomyopathy seen in DMD patients. The utrophin/dystrophin DKO model had significant mortality by 10 weeks, although treatment with the TPr antagonist ifetroban led to 100% survival to this predetermined timepoint. Although TPr antagonism may prevent spontaneous death in DMD, due to severe kyphosis and frailty we were not able to obtain much useful cardiac data with the DKO model of DMD.
(§3) While the DSG KO (sgcd−/−) mice lack functional delta-sarcoglycan, the MD phenotype is milder than the human disease. […]

Experiment [8] concerns dSG KO mice. Description: survival of dSG KO mice. Type of experiment: in vivo, mouse. An excerpt: Applicants explored the possibility that TPr activity may contribute to pathology in muscular dystrophy. In preliminary studies, the effects of blocking TPr activity in a δ-sarcoglycan knockout (dSG KO) mouse model of limb-girdle muscular dystrophy (LGMD). […] The inhibition of LV epicardial fibrosis may have particular applicability to DMD patients, where cardiac fibrosis typically begins in the sub-epicardium of the left ventricular (LV) free wall and progresses to include the remaining LV free wall and septum. […] Therefore, it is believed that TPr activity contributes to pathology in muscular dystrophy. Example 4 utilized West/Carrier Muscular Dystrophy Animal Models (Delta-sarcoglycan knock-out mice (sgcd−/−)). Mice devoid of DSG develop cardiomyopathy and MD with signs of progressive disease such as necrosis, muscular regeneration, inflammation and fibrosis within the first 3 months of life. Mice that are homozygous for the targeted mutation are viable, fertile and normal in size. No gene product (protein) is immunodetected in skeletal muscle microsomal preparations. At 8 weeks of age there is an onset of sudden mortality, with a 50% survival rate at 28 weeks. Elevated creatine kinase serum levels are indicative of striated muscle degeneration. […] Myofiber membranes have permeability defects as assessed by Evans blue dye uptake into myofiber cytoplasm. […]

In experiment [9] the test system is δ-sarcoglycan knockout (dSG KO) mouse model of limb-girdle muscular dystrophy. Put plainly: cardiac function (Echo, cardiac output) in dSG KO mice. Type of experiment: in vivo.
Source text: as §2, §1, §3

The subject of experiment [10] is dSG KO mice. Put plainly: spontaneous exercise (voluntary wheel running) in dSG KO mice. Type of experiment: in vivo, mouse. As to conditions: 6 month old dSG KO males; wheel access for 10 days after 4.5M of treatment; FIG. 5.
Source text: as §1
FIG. 5 provides spontaneous exercise date for 6 month old males. […]

The mark [11] stands for this setting: dSG KO mice, given in drinking water, preliminary studies.

Molecules are shown by their SMILES.

Take `CC(=O)Oc1ccccc1C(=O)O` [aspirin]: in [1], the cardiac function result is given as “no effect” and the right ventricular fibrosis entry is “no effect”.
Consider `CCCCCNC(=O)c1coc([C@H]2[C@@H](Cc3ccccc3CCC(=O)O)[C@@H]3CC[C@H]2O3)n1` [ifetroban, [1S-(1α,2α,3α,4α)]-2-[[3-[4-[(Pentylamino)carbonyl]-2-oxazolyl]-7-oxabicyclo[2.2.1]hept-2-yl]methyl]-benzenepropanoic acid], for which the wire hang time entry with dSG KO mice [2] (dSG mice at 6 months, FIG. 6) is “improved wire hang time”. The “wire hang time (longest time)” value in the experiment on dSG KO mice [2] (male mice at 6 months, FIG. 8) is recorded as “difficult to measure any difference”. The “fibrosis in intestinal tissue” value in the experiment with dSG KO mice [3] is “less fibrosis”. Further, in experiment [4], the “average wire hang time” value is on record as “significantly longer average hang times”. The “cardiac histology: fibrosis in RV” value in [5] (dSG KO males, Masson's trichrome 4× (FIG. 9) or 2× (FIG. 10)) was “less fibrosis”. Besides, the “cardiac histology: fibrosis in left and right ventricle” value in experiment [5] (dSG KO males, Masson's trichrome, 10×, FIG. 11) was “Less fibrosis”. Further, the “formation of cardiac fibrosis” value in experiment [5] (setting [11]) is listed as “limits the formation of cardiac fibrosis”. The “plasma cardiac troponin I levels” value in [6] is on record as “normalizing elevated plasma cardiac troponin I levels”. In experiment [7] (DKO mice, treatment started at 3 weeks upon weaning), this compound registered a 10-week survival of 100%. Moreover, the survival time in experiment [7] (all DKO mice, FIG. 17) is > 70 days. In the experiment on dSG KO mice [8], the survival entry is “significantly improved survival”. Besides, the “3 month Echo data: cardiac dysfunction” value in [9] (dSG KO males at 3 months, FIG. 3) is given as “prevents cardiac dysfunction”. In [9] (setting [11]), the “decline in cardiac function” value was “prevents a decline in cardiac function”. Besides, the cardiac output entry in experiment [9] (male dSG KO mice at 3 months, FIG. 4, compared to vehicle) is “improved similar to WT levels”. Also, the “spontaneous exercise (voluntary wheel running): skeletal function deficit” value in the experiment with dSG KO mice [10] is “seen to a less extent”. For the same compound, in [1], the cardiac function result is recorded as “improves cardiac function” and the right ventricular fibrosis entry is given as “dramatically decreases right ventricular fibrosis”.
Take `O=C(O)/C=C/c1ccc(Cn2ccnc2)cc1` [ozagrel]: in experiment [1], the cardiac function result is “no effect” and the right ventricular fibrosis entry was “no effect”.
